Data published in patent US10195270B2, “Peptide/β-1,3-glucan complex and production method thereof and pharmaceutical composition containing peptide/β-1,3-glucan complex” (Japan Science and Technology Agency, priority 2014, dated 2019).

Columns and labels:
spleen cells of mice [1] = experiment: Antigenic peptide-specific IFN-γ production (ELISA) by OVA peptide-stimulated spleen cells of immunised mice (Examples 3 and 6); assay type: in vivo, mouse; conditions: Example 3, FIG. 4; C57BL/6 mice, intradermal once; spleen cells one week after administration, stimulated with OVA peptide 10 μg/mL, ELISA after 24 hours
Experimental: (1) One of the following was intradermally administered once to mice (C57BL/6 mouse, male, 7 weeks old): (1) antigenic peptide (OVA peptide, 5 μg) having an ovalbumin (OVA)-derived amino acid sequence (SEQ ID No. 1), (2) […] (5 μg) and CpG DNA (base sequence: […] (SEQ ID No. 2), 30 μg), (3) OVA peptide-dA40(S)/SPG complex (see Example 1, 5 μg), (4) OVA peptide-dA40(S)/SPG complex (prepared as in Example 1, 5 μg) and CpG DNA (30 μg), and (5) OVA peptide-dA40(S)/SPG complex (5 μg) and incomplete Freund's adjuvant (IFA). An investigation was performed to see whether antigen-specific interferon-γ (IFN-γ) was induced by, one week after administration, harvesting spleen cells from the mice, placing the cells in 96 wells (1.0×10^6 cells/well), and then stimulating the cells using OVA peptide (10 μg/mL).
Then 24 hours after stimulating the spleen cells by OVA peptide, enzyme-linked immunosorbent assay (ELISA) was used to quantitatively measure IFN-γ in the culture medium. […]
Then 24 hours after stimulating the spleen cells by OVA peptide, enzyme-linked immunosorbent assay (ELISA) was used to quantitatively measure IFN-γ in the culture medium.

spleen cells of mice [2] = experiment: Fraction of OVA peptide-specific CD8-positive (cytolytic) T cells in spleen cells of immunised mice, flow cytometer (Examples 4 and 7); assay type: in vivo, mouse; conditions: Example 4, FIG. 5; spleen cells of Example 3 mice stimulated with OVA peptide-dA40(S)/SPG complex, cultured 6 days
Experimental: Mouse spleen cells were harvested from mice to which had been intradermally administered in Example 3 the (1) OVA peptide, (2) OVA peptide and CpG DNA, (3) OVA peptide-dA40(S)/SPG complex, or (4) OVA peptide-dA40(S)/SPG complex and CpG DNA. The harvested cells were stimulated using OVA peptide-dA40(S)/SPG complex and were cultured for 6 days. Then after antibody staining, a flow cytometer was used to evaluate the fraction of T cells that had cytotoxic specificity (CD8 positive) for OVA peptide.
The fraction of OVA peptide-specific CD8-positive T cells was low for the case (peptide) in which OVA peptide alone was administered, the case (peptide+CpG) in which OVA peptide and CpG DNA were simultaneously administered, and the case (peptide/SPG) in which OVA peptide-dA40(S)/SPG complex alone was administered.
The (1) OVA peptide, (2) OVA peptide and CpG DNA, (3) OVA peptide and CpG DNA-dA40(S)/SPG complex, or (4) OVA peptide-dA40(S)/CpG DNA-dA40(S)/SPG ternary complex prepared in Example 5 of Example 6 was intradermally administered, mouse spleen cells were harvested and stimulated using OVA peptide-dA40(S)/SPG complex, and the stimulated cells were cultured for 6 days. Then after antibody staining, a flow cytometer was used to evaluate the fraction of T cells that had cytotoxic specificity (CD8 positive) for OVA peptide.

SIINFEKL (SEQ ID No. 1) (listed as Homo sapiens) [OVA peptide]
OVA peptide-specific interferon (IFN-γ) reaction (spleen cells of mice [1]): No OVA peptide-specific interferon reaction was observed | fraction of OVA peptide-specific CD8-positive T cells among the spleen cells (spleen cells of mice [2]): low
